Source: ChEMBL document CHEMBL2074455, “The fluorescent probe Bodipy-FL-verapamil is a substrate for both P-glycoprotein and multidrug resistance-related protein (MRP)-1” (J Histochem Cytochem, 2002)

How the values were obtained:
[1] = target: ATP-dependent translocase ABCB1 (Mus musculus, UniProt P21447); assay: TP_TRANSPORTER: efflux, inhibited by Verapamil in P388/ADR cells; type: functional, cell-based
[2] = target: Multidrug resistance-associated protein 1 (Homo sapiens, UniProt P33527); assay: TP_TRANSPORTER: efflux, inhibited by MK571 in PANC-1 cells; type: functional, cell-based
Sequence of Multidrug resistance-associated protein 1 (P33527 whole entry): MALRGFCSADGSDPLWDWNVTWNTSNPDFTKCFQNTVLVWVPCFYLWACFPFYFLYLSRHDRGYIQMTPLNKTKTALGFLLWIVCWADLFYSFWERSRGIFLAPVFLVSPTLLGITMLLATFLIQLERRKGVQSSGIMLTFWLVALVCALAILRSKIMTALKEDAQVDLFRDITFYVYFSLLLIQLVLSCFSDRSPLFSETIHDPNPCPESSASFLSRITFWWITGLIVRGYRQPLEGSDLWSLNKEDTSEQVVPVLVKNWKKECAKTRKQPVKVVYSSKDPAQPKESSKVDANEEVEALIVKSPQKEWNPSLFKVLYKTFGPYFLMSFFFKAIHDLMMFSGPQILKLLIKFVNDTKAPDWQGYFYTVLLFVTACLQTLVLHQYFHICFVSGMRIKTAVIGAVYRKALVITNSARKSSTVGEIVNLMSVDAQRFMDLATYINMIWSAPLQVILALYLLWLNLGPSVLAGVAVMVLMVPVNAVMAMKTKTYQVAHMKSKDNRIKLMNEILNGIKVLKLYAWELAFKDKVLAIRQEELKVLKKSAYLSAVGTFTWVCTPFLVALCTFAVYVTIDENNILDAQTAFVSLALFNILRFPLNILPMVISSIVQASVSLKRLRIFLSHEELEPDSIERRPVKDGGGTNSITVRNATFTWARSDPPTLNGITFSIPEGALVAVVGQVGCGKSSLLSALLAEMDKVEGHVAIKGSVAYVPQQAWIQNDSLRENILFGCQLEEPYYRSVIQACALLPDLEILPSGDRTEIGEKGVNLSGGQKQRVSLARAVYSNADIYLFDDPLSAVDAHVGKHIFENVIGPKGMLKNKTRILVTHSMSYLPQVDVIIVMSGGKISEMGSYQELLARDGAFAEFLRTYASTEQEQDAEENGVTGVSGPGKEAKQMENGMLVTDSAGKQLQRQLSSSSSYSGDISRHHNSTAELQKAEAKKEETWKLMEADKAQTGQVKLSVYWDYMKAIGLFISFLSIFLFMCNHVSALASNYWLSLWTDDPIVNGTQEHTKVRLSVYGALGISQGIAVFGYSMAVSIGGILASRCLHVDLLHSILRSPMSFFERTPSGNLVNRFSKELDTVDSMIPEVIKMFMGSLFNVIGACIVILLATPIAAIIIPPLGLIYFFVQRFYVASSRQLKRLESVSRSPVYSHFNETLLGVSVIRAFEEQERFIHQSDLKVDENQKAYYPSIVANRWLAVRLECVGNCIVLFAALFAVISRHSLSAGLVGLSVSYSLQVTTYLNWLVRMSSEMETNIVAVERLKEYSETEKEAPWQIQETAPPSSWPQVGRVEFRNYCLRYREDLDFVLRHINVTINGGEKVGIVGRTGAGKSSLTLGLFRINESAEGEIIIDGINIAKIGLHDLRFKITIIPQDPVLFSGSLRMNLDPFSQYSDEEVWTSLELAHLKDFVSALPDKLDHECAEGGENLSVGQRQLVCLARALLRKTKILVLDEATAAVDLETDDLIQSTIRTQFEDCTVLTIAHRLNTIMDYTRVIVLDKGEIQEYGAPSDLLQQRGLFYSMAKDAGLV

Sequence of ATP-dependent translocase ABCB1 (P21447 whole entry): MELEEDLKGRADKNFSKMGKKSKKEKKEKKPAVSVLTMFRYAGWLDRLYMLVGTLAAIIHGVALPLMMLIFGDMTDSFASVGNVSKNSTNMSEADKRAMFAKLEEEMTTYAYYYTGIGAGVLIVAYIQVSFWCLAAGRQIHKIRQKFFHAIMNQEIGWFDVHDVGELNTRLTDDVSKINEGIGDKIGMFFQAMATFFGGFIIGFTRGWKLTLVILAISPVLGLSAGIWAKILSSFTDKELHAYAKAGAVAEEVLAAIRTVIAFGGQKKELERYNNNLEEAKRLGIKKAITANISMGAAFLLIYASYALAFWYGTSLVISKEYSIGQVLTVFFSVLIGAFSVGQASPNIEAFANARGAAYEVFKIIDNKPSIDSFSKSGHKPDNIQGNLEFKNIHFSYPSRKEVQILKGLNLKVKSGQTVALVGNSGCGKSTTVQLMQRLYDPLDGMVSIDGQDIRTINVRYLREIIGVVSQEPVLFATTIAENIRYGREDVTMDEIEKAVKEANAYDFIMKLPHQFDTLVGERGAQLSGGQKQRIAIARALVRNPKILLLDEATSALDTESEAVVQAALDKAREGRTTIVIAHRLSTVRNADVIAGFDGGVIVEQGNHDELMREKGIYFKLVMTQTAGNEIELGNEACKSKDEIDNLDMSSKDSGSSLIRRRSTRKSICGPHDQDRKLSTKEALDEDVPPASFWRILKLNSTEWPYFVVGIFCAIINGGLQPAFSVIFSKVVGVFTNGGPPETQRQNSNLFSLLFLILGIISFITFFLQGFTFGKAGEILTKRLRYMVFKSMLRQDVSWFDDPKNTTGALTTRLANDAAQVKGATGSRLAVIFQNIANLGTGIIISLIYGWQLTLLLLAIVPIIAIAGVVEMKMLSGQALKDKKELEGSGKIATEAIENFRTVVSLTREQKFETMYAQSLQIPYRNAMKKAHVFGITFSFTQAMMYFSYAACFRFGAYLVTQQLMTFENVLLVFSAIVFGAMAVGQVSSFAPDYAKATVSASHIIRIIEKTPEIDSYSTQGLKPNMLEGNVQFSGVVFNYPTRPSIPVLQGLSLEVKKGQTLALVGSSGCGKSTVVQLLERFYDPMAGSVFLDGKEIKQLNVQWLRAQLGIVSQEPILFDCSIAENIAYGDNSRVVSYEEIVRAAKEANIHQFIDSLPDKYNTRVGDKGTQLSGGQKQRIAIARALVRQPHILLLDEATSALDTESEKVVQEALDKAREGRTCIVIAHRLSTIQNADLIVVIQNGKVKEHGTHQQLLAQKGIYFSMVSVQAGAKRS

SMILES: COc1ccc(CCN(C)CCCC(CNC(=O)NCC2=[N+]3C(=Cc4c(C)cc(C)n4[B-]3(F)F)C=C2)(c2ccc(OC)c(OC)c2)C(C)C)cc1OC (configuration not stated)
- Activity [1]: substrate [+]
- Activity [2]: substrate [+]
